Test results taken from patent publication US8247211B2, “Glycopeptide antibiotics” (American Cyanamid Company, priority 2001, dated 2012).
Values after ≈ are worked out from the molar mass of the structure shown.

Tests used:
[1] = Anatomic pathology (heart and kidney histopathology) in mice; format: in vivo, CD-1 mice; conditions: 20 mg/kg intravenously daily for 9 days, microscopic histopathology on day 10
Procedure, shortened: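 Histopathology on H&E-stained, paraffin-embedded sections, subjectively scored (slight, mild, moderate, marked, severe) relative to untreated controls. Dosing: glycopeptide antibiotics 20 mg/kg intravenously once daily ×9 days in 20-day-old CD-1 mice, n=5 per group including vehicle.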

Streptococcus sp. = assay: In vitro antibacterial evaluation: minimum inhibitory concentration (MIC), broth dilution method; format: cell-based; conditions: 18 hours at 35° C.
Procedure, shortened: (§1)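 Inoculum: 5×10^5 CFU/mL. Range: 64-0.06 μg/mL. Medium: Muller-Hinton II […]; NCCLS M7-A2 broth dilution. Endpoint: lowest concentration inhibiting growth. Strains include methicillin-, penicillin- and/or vancomycin-resistant clinical isolates.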

Escherichia coli = assay: as above; format: cell-based; conditions: 18 hours at 35° C.
Procedure, shortened: as §1

Enterococcus sp. = assay: as above; format: cell-based; conditions: 18 hours at 35° C.
Procedure, shortened: as §1

Staphylococcus sp. = assay: as above; format: cell-based; conditions: 18 hours at 35° C.
Procedure, shortened: as §1

[2] = format: in vivo; conditions: mice, 20 mg/kg intravenously daily for 9 days, serum on day 10
Description: 20-day-old CD-1 mice were divided into a vehicle control group (5 mice) and a treatment group (5 mice). Samples of glycopeptide antibiotics were administered at 20 mg/kg intravenously daily for 9 days. Animals were necropsied on day 10 Sera were analyzed for BUN (blood urea nitrogen), creatinine, AST (aspartic aminotransferase), and ALT (alanine aminotransferase) by routine, standard, automated methods using an Hitachi 747 chemistry analyzer.

[3] = test system: Staphylococcus aureus-SMITH (GC 4543); assay: Acute lethal infection in mice (ED50); format: in vivo; conditions: female CD-1 mice, intraperitoneal challenge, intravenous dose 30 min. after infection, 7 day survival ratios
Procedure, shortened: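 IP bacterial challenge, female CD-1 mice; inoculum lethal to untreated controls in 24-48 hr. IV dosing in saline or 5% dextrose 30 min post-infection, 5 mice/dose. ED50 from 7-day survival, 3 tests pooled.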

[4] = broth dilution, inoculum 5×10^5 CFU/mL

COc1ccc2cc(COCC3OC(OC4C(CO)OC(Oc5ccc(CC6NC(=O)C(C(C)c7ccccc7)NC(=O)CNC(=O)C(CO)NC(=O)C(CC7CNC(=N)N7C7OC(CO)C(O)C(O)C7O)NC(=O)C(CC7CNC(=N)N7)NC6=O)cc5)C(O)C4O)C(O)C(O)C3O)ccc2c1 (stereo not drawn) [Example 245, Cyclo[3-(2-iminoimidazolidin-4-yl)alanyl-3-(3-hexopyranosyl-2-iminoimidazolidin-4-yl)-alanylserylglycyl-β-methylphenylalanyl-O-[4-O-[6-O-[(6-methoxy-2-naphthyl)methyl]-hexopyranosyl)hexopyranosyl]tyrosyl]]
Anatomical Pathology (Day 10), Heart [1]: 0
Anatomical Pathology (Day 10), Kidney [1]: +++
MIC Streptococcus agalactiae (GC 4564) (Streptococcus sp.; Streptococcus agalactiae (GC 4564)): 4 µg/mL (≈ 2.79 µM)
MIC Streptococcus pneumoniae (ATCC 6301) (Streptococcus sp.; Streptococcus pneumoniae (ATCC 6301)): 2 µg/mL (≈ 1.4 µM)
MIC Streptococcus pneumoniae (GC 1894) (Streptococcus sp.; Streptococcus pneumoniae (GC 1894)): 1 µg/mL (≈ 0.698 µM)
MIC Streptococcus pneumoniae (GC 4565) (Streptococcus sp.; Streptococcus pneumoniae (GC 4565)): 4 µg/mL (≈ 2.79 µM)
MIC Streptococcus pyogenes (GC 4563) (Streptococcus sp.; Streptococcus pyogenes (GC 4563)): 4 µg/mL (≈ 2.79 µM)
MIC Streptococcus agalactiae (GC 4564) (Streptococcus sp.; [4]): 4 µg/mL (≈ 2.79 µM)
MIC Streptococcus pneumoniae (ATCC 6301) (Streptococcus sp.; [4]): 2 µg/mL (≈ 1.4 µM)
MIC Streptococcus pneumoniae (GC 1894) (Streptococcus sp.; [4]): 1 µg/mL (≈ 0.698 µM)
MIC Streptococcus pneumoniae (GC 4565) (Streptococcus sp.; [4]): 4 µg/mL (≈ 2.79 µM)
MIC Streptococcus pyogenes (GC 4563) (Streptococcus sp.; [4]): 4 µg/mL (≈ 2.79 µM)
MIC Escherichia coli (ATCC 25922) (Escherichia coli; Escherichia coli (ATCC 25922)): 64 µg/mL (≈ 44.6 µM)
MIC Escherichia coli (GC 4559) (Escherichia coli; Escherichia coli (GC 4559)): 32 µg/mL (≈ 22.3 µM)
MIC Escherichia coli (GC 4560) (Escherichia coli; Escherichia coli (GC 4560)): 4 µg/mL (≈ 2.79 µM)
MIC Enterococcus avium (GC 4558) (Enterococcus sp.; Enterococcus avium (GC 4558)): 16 µg/mL (≈ 11.2 µM)
MIC Enterococcus faecalis (ATCC 29212) (Enterococcus sp.; Enterococcus faecalis (ATCC 29212)): 32 µg/mL (≈ 22.3 µM)
MIC Enterococcus faecalis (GC 2242) (Enterococcus sp.; Enterococcus faecalis (GC 2242)): 16 µg/mL (≈ 11.2 µM)
MIC Enterococcus faecalis (GC 2691) (Enterococcus sp.; Enterococcus faecalis (GC 2691)): 32 µg/mL (≈ 22.3 µM)
MIC Enterococcus faecalis (GC 3059) (Enterococcus sp.; Enterococcus faecalis (GC 3059)): 16 µg/mL (≈ 11.2 µM)
MIC Enterococcus faecalis (GC 4552) (Enterococcus sp.; Enterococcus faecalis (GC 4552)): 16 µg/mL (≈ 11.2 µM)
MIC Enterococcus faecalis (GC 4553) (Enterococcus sp.; Enterococcus faecalis (GC 4553)): 16 µg/mL (≈ 11.2 µM)
MIC Enterococcus faecalis (GC 4554) (Enterococcus sp.; Enterococcus faecalis (GC 4554)): 32 µg/mL (≈ 22.3 µM)
MIC Enterococcus faecalis (GC 6189) (Enterococcus sp.; Enterococcus faecalis (GC 6189)): 32 µg/mL (≈ 22.3 µM)
MIC Enterococcus faecium (GC 2243) (Enterococcus sp.; Enterococcus faecium (GC 2243)): 16 µg/mL (≈ 11.2 µM)
MIC Enterococcus faecium (GC 4556) (Enterococcus sp.; Enterococcus faecium (GC 4556)): 16 µg/mL (≈ 11.2 µM)
MIC Enterococcus faecium (GC 4557) (Enterococcus sp.; Enterococcus faecium (GC 4557)): 4 µg/mL (≈ 2.79 µM)
MIC Enterococcus faecalis (GC 2242) (Enterococcus sp.; [4]): 16 µg/mL (≈ 11.2 µM)
MIC Enterococcus faecalis (GC 2691) (Enterococcus sp.; [4]): 32 µg/mL (≈ 22.3 µM)
MIC Enterococcus faecalis (GC 3059) (Enterococcus sp.; [4]): 16 µg/mL (≈ 11.2 µM)
MIC Coagulase Negative Staphylococcus (GC 4547) (Staphylococcus sp.; Coagulase Negative Staphylococcus (GC 4547)): 4 µg/mL (≈ 2.79 µM)
MIC Coagulase Negative Staphylococcus (GC 4548) (Staphylococcus sp.; Coagulase Negative Staphylococcus (GC 4548)): 2 µg/mL (≈ 1.4 µM)
MIC Coagulase Negative Staphylococcus (GC 4549) (Staphylococcus sp.; Coagulase Negative Staphylococcus (GC 4549)): 1 µg/mL (≈ 0.698 µM)
MIC Coagulase Negative Staphylococcus (GC 4551) (Staphylococcus sp.; Coagulase Negative Staphylococcus (GC 4551)): 8 µg/mL (≈ 5.58 µM)
MIC Coagulase Negative Staphylococcus (GC 6257) (Staphylococcus sp.; Coagulase Negative Staphylococcus (GC 6257)): 2 µg/mL (≈ 1.4 µM)
MIC Staphylococcus aureus (ATCC 29213) (Staphylococcus sp.; Staphylococcus aureus (ATCC 29213)): 4 µg/mL (≈ 2.79 µM)
MIC Staphylococcus aureus (GC 1131) (Staphylococcus sp.; Staphylococcus aureus (GC 1131)): 8 µg/mL (≈ 5.58 µM)
MIC Staphylococcus aureus (GC 3051) (Staphylococcus sp.; Staphylococcus aureus (GC 3051)): 4 µg/mL (≈ 2.79 µM)
MIC Staphylococcus aureus (GC 3053) (Staphylococcus sp.; Staphylococcus aureus (GC 3053)): 4 µg/mL (≈ 2.79 µM)
MIC Staphylococcus aureus (GC 4541) (Staphylococcus sp.; Staphylococcus aureus (GC 4541)): 4 µg/mL (≈ 2.79 µM)
MIC Staphylococcus aureus (GC 4542) (Staphylococcus sp.; Staphylococcus aureus (GC 4542)): 4 µg/mL (≈ 2.79 µM)
MIC Staphylococcus aureus (GC 4544) (Staphylococcus sp.; Staphylococcus aureus (GC 4544)): 8 µg/mL (≈ 5.58 µM)
MIC Staphylococcus aureus (GC 4545) (Staphylococcus sp.; Staphylococcus aureus (GC 4545)): 4 µg/mL (≈ 2.79 µM)
MIC Staphylococcus aureus-SMITH (GC 4543) (Staphylococcus sp.; Staphylococcus aureus-SMITH (GC 4543)): 4 µg/mL (≈ 2.79 µM)
MIC Staphylococcus haemolyticus (GC 4546) (Staphylococcus sp.; Staphylococcus haemolyticus (GC 4546)): 4 µg/mL (≈ 2.79 µM)
Clinical Chemistry (Day 10) % of Control, BUN [2]: +160%
median effective dose (ED50), Staphylococcus aureus-SMITH (GC 4543) [3]: 4 mg/kg
